Results taken from publication PMC6445713 (Molecular cancer research : MCR, 2018).
*1 amine or outer side, *2 acyl side, *3 side chain or, on linkers, in order; H or OH if unused. Where a SMILES comes first, the peptide text is derived from it. Bridges are numbered along the chain shown (N, C = ends). [ ]: non-standard residue; d: D form. The star is where a group is joined. Leu(3R-OH,Nα-propionyl) = CCC(=O)N[C@H](C(=O)*)[C@H](O)C(C)C; X1 = CC(C)[C@@H](O[*:3])[C@H](N[*:1])C(=O)[*:2]; NMeT = CN[C@H](C(=O)O)[C@@H](C)O; dPhLac = O=C(O)[C@H](O)Cc1ccccc1; NMeA = CN[C@@H](C)C(=O)O; NMeDha = C=C(NC)C(=O)O

Assays:
Gαq-Q209L (GαqΔ34-Q209L) [1] = target: T1, Gαq-Q209L (GαqΔ34-Q209L) (Mus musculus, UniProt P21279, Q209L); experiment: […]GTPγS filter-binding assay with purified protein preincubated with FR; format: biochemical
T1 sequence (P21279 35-359 Q209L): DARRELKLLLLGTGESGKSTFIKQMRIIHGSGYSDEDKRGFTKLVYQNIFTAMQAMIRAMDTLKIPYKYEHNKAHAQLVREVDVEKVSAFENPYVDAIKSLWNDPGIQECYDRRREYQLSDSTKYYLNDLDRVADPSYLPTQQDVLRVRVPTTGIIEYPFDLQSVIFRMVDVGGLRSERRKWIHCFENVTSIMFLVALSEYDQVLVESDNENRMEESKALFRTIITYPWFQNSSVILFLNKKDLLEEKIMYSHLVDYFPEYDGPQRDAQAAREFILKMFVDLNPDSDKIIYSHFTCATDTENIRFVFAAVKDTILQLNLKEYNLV

Gαq [2] = target: Gαq (Rattus norvegicus, UniProt P82471); experiment: as above; format: biochemical
Gαq [3] = target: T2, Gαq (Rattus norvegicus, UniProt P82471); experiment: […]GTPγS radioligand filter binding
T2 sequence (P82471 1-359): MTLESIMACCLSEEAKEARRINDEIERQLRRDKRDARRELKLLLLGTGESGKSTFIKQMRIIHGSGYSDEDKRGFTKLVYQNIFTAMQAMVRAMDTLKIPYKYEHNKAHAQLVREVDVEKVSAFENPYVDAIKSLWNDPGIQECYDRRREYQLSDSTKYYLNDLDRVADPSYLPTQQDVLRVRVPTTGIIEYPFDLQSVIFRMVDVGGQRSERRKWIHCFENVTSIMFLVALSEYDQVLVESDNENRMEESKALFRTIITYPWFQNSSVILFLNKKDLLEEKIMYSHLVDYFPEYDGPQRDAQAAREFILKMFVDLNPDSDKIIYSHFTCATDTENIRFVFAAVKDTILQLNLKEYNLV

Gαq-Q209L (GαqΔ34-Q209L) [4] = target: T1, Gαq-Q209L (GαqΔ34-Q209L); experiment: […]GTPγS radioligand filter binding

Row | SMILES | IC50 (Gαq-Q209L (GαqΔ34-Q209L) [1]) [nM] | IC50 (Gαq [2]) [nM] | [35S]GTPγS radioligand filter binding (Gαq [3]) | [35S]GTPγS radioligand filter binding (Gαq-Q209L (GαqΔ34-Q209L) [4])
1 | C=C1C(=O)N[C@@H](C)C(=O)N(C)[C@@H](C)C(=O)N[C@@H]([C@H](OC(=O)[C@@H](NC(=O)CC)[C@H](O)C(C)C)C(C)C)C(=O)N(C)[C@@H]([C@@H](C)OC)C(=O)O[C@H](C(C)C)[C@H](NC(C)=O)C(=O)O[C@H](Cc2ccccc2)C(=O)N1C [FR, FR900359] (Ac-[X1][dPhLac][NMeDha]A[NMeA][X1](Leu(3R-OH,Nα-propionyl))[NMeT](Me); ester 1-C) | ~75 | ~75 | – | –
2 | Nc1nc2c(ncn2[C@@H]2O[C@H](COP(=O)(O)OP(=O)(O)OP(O)(O)=S)[C@@H](O)[C@H]2O)c(=O)[nH]1 [GTPγS] | – | – | GTPγS binding of purified Gαq and Gαq-Q209L was measured using a filter-binding method | GTPγS binding of purified Gαq and Gαq-Q209L was measured using a filter-binding method
